Laboratory results from ChEMBL document CHEMBL4819142, “Synthesis of propargylamine mycophenolate analogues and their selective cytotoxic activity towards neuroblastoma SH-SY5Y cell line” (Bioorg Med Chem Lett, 2021).

Legend:
[1] = Cytotoxicity against human […] cells assessed as growth inhibition measured by SRB assay; format: cell-based
[2] = test system: FaDu; assay: Cytotoxicity against human FaDu cells assessed as growth inhibition measured by SRB assay; format: functional, cell-based
[3] = test system: A549; assay: Cytotoxicity against human A549 cells assessed as growth inhibition measured by SRB assay; format: functional, cell-based
[4] = Cytotoxicity against human KKUM213 cells assessed as growth inhibition measured by SRB assay; format: functional, cell-based; conditions: KKU-M213
[5] = test system: HT-29; assay: Cytotoxicity against human HT-29 cells assessed as growth inhibition measured by SRB assay; format: functional, cell-based
[6] = test system: SH-SY5Y; assay: Cytotoxicity against human SH-SY5Y cells assessed as growth inhibition measured by SRB assay; format: functional, cell-based
[7] = test system: MDA-MB-231; assay: Cytotoxicity against human MDA-MB-231 cells assessed as growth inhibition measured by SRB assay; format: functional, cell-based

| SMILES | IC50 [1] [µM] | IC50 [2] [µM] | IC50 [3] [µM] | IC50 [4] [µM] | IC50 [5] [µM] | IC50 [6] [µM] | IC50 [7] [µM] |
| --- | --- | --- | --- | --- | --- | --- | --- |
| COC(=O)CC/C(C)=C/Cc1c(OC)c(C)c2c(c1OCC#CCN1CCN(c3ccc(C#N)cc3)CC1)C(=O)OC2 | > 50 | > 50 | > 50 | > 50 | > 50 | 37.8 | > 50 |
| COC(=O)CC/C(C)=C/Cc1c(OC)c(C)c2c(c1OCC#CCN1CCC(c3ccccc3)c3ccccc31)C(=O)OC2 (stereo not given) | 23.3 | 24.6 | 7.68 | 25.9 | 39.5 | 6.45 | 28.7 |
| CCCCNc1ccc(CC#CCOc2c(C/C=C(\C)CCC(=O)OC)c(OC)c(C)c3c2C(=O)OC3)cc1 | 18.3 | 21.2 | 6.97 | 22.9 | 36.7 | 5.96 | 19.8 |
| COC(=O)CC/C(C)=C/Cc1c(OC)c(C)c2c(c1OCC#CCN(CC#CCOc1c(C/C=C(\C)CCC(=O)OC)c(OC)c(C)c3c1C(=O)OC3)CCC(C)C)C(=O)OC2 | 48.2 | 46.7 | 27.5 | 48.3 | > 50 | 20.6 | 48.6 |
| COc1c(C)c2c(c(O)c1C/C=C(\C)CCC(=O)O)C(=O)OC2 [MYCOPHENOLIC ACID] | 7.19 | 6.72 | 1.21 | 7.16 | 6.48 | 0.56 | 7.83 |
| COC(=O)CC/C(C)=C/Cc1c(OC)c(C)c2c(c1OCC#CCN1CCN(C(c3ccccc3)c3ccccc3)CC1)C(=O)OC2 | > 50 | > 50 | 32.7 | > 50 | > 50 | 23.7 | > 50 |
| COC(=O)CC/C(C)=C/Cc1c(OC)c(C)c2c(c1OCC#CCN1CCN(c3ccccc3F)CC1)C(=O)OC2 | > 50 | > 50 | 45.3 | > 50 | > 50 | 35.8 | > 50 |
| COC(=O)CC/C(C)=C/Cc1c(OC)c(C)c2c(c1OCC#CCN1CCN(c3ncccn3)CC1)C(=O)OC2 | > 50 | > 50 | > 50 | > 50 | > 50 | > 50 | > 50 |
| COC(=O)CC/C(C)=C/Cc1c(OC)c(C)c2c(c1OCC#CCN1CCOCC1)C(=O)OC2 | > 50 | > 50 | > 50 | > 50 | > 50 | > 50 | > 50 |
| CCCCN(CC#CCOc1c(C/C=C(\C)CCC(=O)OC)c(OC)c(C)c2c1C(=O)OC2)CCCC | 36 | 30.9 | 30.6 | 38.2 | > 50 | 21.5 | 39.8 |
| COC(=O)CC/C(C)=C/Cc1c(OC)c(C)c2c(c1OCC#CCN1CCCc3ccccc31)C(=O)OC2 | > 50 | > 50 | 18 | > 50 | > 50 | 9.57 | > 50 |
| COC(=O)CC/C(C)=C/Cc1c(OC)c(C)c2c(c1OCC#CCN1CCN(CCO)CC1)C(=O)OC2 | > 50 | > 50 | > 50 | > 50 | > 50 | 35.7 | > 50 |
| COC(=O)CC/C(C)=C/Cc1c(OC)c(C)c2c(c1OCC#CCN1CCN(c3ccc(C)cc3)CC1)C(=O)OC2 | > 50 | > 50 | > 50 | > 50 | > 50 | 37.7 | > 50 |
| COC(=O)CC/C(C)=C/Cc1c(OC)c(C)c2c(c1OCC#CCN1CCCC1)C(=O)OC2 | > 50 | > 50 | 35.9 | > 50 | 46.5 | 31.1 | > 50 |
| COC(=O)CC/C(C)=C/Cc1c(OC)c(C)c2c(c1OCC#CCN1CCC(Cc3ccccc3)CC1)C(=O)OC2 | > 50 | > 50 | 40.7 | > 50 | > 50 | 24.5 | > 50 |
